Here are results for 20 molecules from US8163745B2, “HIV inhibiting 5-(hydroxymethylene and aminomethylene) substituted pyrimidines” (Tibotec Pharmaceuticals Ltd., priority 2006, dated 2012).

Where two headings read alike, the source gives them in different places.

Series [1] relates to HIV mutant strain K103N + Y181C. The series can be described thus: microbe, parasite or virus in culture. In kind it is cell-based, HIV-1. The note with it: MT4 LTR-EGFP cells, measured three days after infection; for EC50: Human immunodeficiency virus 1, 72 h, read-out: K103N + Y181C (pEC50), strain K103N + Y181C (converted); for K103N + Y181C (pEC50): strain K103N + Y181C. How it is done: (§1) The antiviral activity of the compound of the present invention has been evaluated in the presence of wild type HIV and HIV mutants bearing mutations at the reverse transcriptase gene. The activity of the compounds is evaluated using a cellular assay which was performed according to the following procedure.
(§2) The human T-cell line MT4 is engineered with Green Fluorescent Protein (GFP) and an HIV-specific promoter, HIV-1 long terminal repeat (LTR). This cell line is designated MT4 LTR-EGFP, and can be used for the in vitro evaluation of anti-HIV activity of investigational compounds. In HIV-1 infected cells, the Tat protein is produced which upregulates the LTR promotor and finally leads to stimulation of the GFP reporter production, allowing to measure ongoing HIV-infection fluorometrically.
(§3) Effective concentration values such as 50% effective concentration (EC50) can be determined and are usually expressed in μM. An EC50 value is defined as the concentration of test compound that reduces the fluorescence of HIV-infected cells by 50%. The 50% cytotoxic concentration (CC50 in μM) is defined as the concentration of test compound that reduces fluorescence of the mock-infected cells by 50%. The ratio of CC50 to EC50 is defined as the selectivity index (SI) and is an indication of the selectivity of the anti-HIV activity of the inhibitor. The ultimate monitoring of HIV-1 infection and cytotoxicity is done using a scanning microscope. Image analysis allows very sensitive detection of viral infection. Measurements are done before cell necrosis, which usually takes place about five days after infection, in particular measurements are performed three days after infection.
(§4) The columns IIIB, L100I, etc. in the table list the pEC50 values against various strains IIIB, L100I, etc.

In a further series the test system is HIV mutant strain Y181C. Kind of series: microbe, parasite or virus in culture. The series is classed as cell-based, HIV-1. The following applies: MT4 LTR-EGFP cells, measured three days after infection; for EC50: Human immunodeficiency virus 1, 72 h, read-out: Y181C (pEC50), strain Y181C (converted); for Y181C (pEC50): strain Y181C. How it is done: as §1, §2, §3, §4

For series [2], the system named is HIV mutant strain L100I + K103N. The series can be described thus: microbe, parasite or virus in culture. The series is classed as cell-based, HIV-1. The following applies: MT4 LTR-EGFP cells, measured three days after infection; for EC50: Human immunodeficiency virus 1, 72 h, read-out: L100I + K103N (pEC50), strain L100I + K103N (converted); for L100I + K103N (pEC50): strain L100I + K103N. The protocol: as §1, §2, §3, §4

In series [3] the test system is wild type HIV strain IIIB. Kind of series: Cellular anti-HIV assay in MT4 LTR-EGFP cells (GFP fluorescence), strain IIIB; cytotoxicity in mock-infected MT4 CMV-EGFP cells for the selectivity index. The series is classed as cell-based, HIV-1. The note with it: for EC50: read-out: IIIB (pEC50) (converted). The protocol: as §1, §2
Analogously, MT4 cells are engineered with GFP and the constitutional cytomegalovirus (CMV) promotor. This cell line is designated MT4 CMV-EGFP, and can be used for the in vitro evaluation of cytotoxicity of investigational compounds. In this cell line, GFP levels are comparably to those of infected MT4 LTR-EGFP cells. Cytotoxic investigational compounds reduce GFP levels of mock-infected MT4 CMV-EGFP cells.
as §3, §4
Strain IIIB is wild type HIV strain.

Series [4] has as its system HIV strain MDR (mutations L100I, K103N, Y181C, E138G, V1791, L2214F, V278V/I and A327A/V in HIV reverse transcriptase). The series can be described thus: microbe, parasite or virus in culture. The note with it: MT4 LTR-EGFP cells, measured three days after infection; for EC50: Human immunodeficiency virus 1, 72 h, read-out: MDR (pEC50), MDR strain (converted); for MDR (pEC50): MDR strain. In kind it is cell-based, HIV-1. How it is done: as §1, §2, §3, §4
“MDR” refers to a strain that contains mutations L100I, K103N, Y181C, E138G, V1791, L2214F, V278V/I and A327A/V in HIV reverse transcriptase.

Setting [5] is: Human immunodeficiency virus 1, IIIB, 72 h, wild type HIV strain IIIB, MT4 LTR-EGFP cells, measured three days after infection.
[6] abbreviates: wild type HIV strain IIIB, MT4 LTR-EGFP cells, measured three days after infection.

For `Cc1cc(/C=C/C#N)cc(C)c1Nc1nc(Nc2ccc(C#N)cc2)ncc1C(O)C1CCCC1` (centres unmarked) [Compound 9], the EC50 in series [1] was 759 nM; in the series on HIV mutant strain Y181C, 245 nM; in series [2] it was 158 nM; in series [3] (setting [5]), 17 nM; in series [4] it was 6610 nM.
In the same order, the values of `Cc1cc(/C=C/C#N)cc(C)c1Nc1nc(Nc2ccc(C#N)cc2)ncc1C(O)c1cncs1` (centres unmarked) [Compound 10] are 4.07 nM, 3.8 nM, 2.63 nM, 3.02 nM and 145 nM.
As to `Cc1cc(/C=C/C#N)cc(C)c1Nc1nc(Nc2ccc(C#N)cc2)ncc1C(O)(c1nccs1)C(C)C` (centres unmarked) [Compound 26], in series [1], the “K103N + Y181C (pEC50)” value is given as 6.24. In addition, in the series with HIV mutant strain Y181C, the “Y181C (pEC50)” value was found to be 6.66. Besides, the “L100I + K103N (pEC50)” value in series [2] is on record as 6.33. Moreover, the “IIIB (pEC50)” value in series [3] (setting [6]) stood at 7.00. Also, in series [4], the “MDR (pEC50)” value is listed as 5.12.
For the molecule `Cc1cnc(C(O)c2cnc(Nc3ccc(C#N)cc3)nc2Nc2c(C)cc(/C=C/C#N)cc2C)s1` (centres unmarked) [Compound 7], the EC50 in series [1] is 47.9 nM; in the series with HIV mutant strain Y181C it was 21.4 nM; in series [2], 14.8 nM; in series [3] (setting [5]) it was 11.5 nM; in series [4], 1620 nM.
With `CCC(O)(c1nccs1)c1cnc(Nc2ccc(C#N)cc2)nc1Nc1c(C)cc(/C=C/C#N)cc1C` (centres unmarked) [Compound 22], the “K103N + Y181C (pEC50)” value in series [1] turned out to be 7.03. For the same molecule, the “Y181C (pEC50)” value in the series with HIV mutant strain Y181C is recorded as 7.21. Moreover, the “L100I + K103N (pEC50)” value in series [2] was 7.51. In addition, the “IIIB (pEC50)” value in series [3] (setting [6]) is given as 7.75. In series [4], the “MDR (pEC50)” value is recorded as 5.66.
In the case of `Cc1cc(/C=C/C#N)cc(C)c1Nc1nc(Nc2ccc(C#N)cc2)ncc1C(O)c1nc2ccccc2s1` (centres unmarked) [Compound 14], the EC50 was 100 nM in series [1]; 75.9 nM in the series with HIV mutant strain Y181C; 70.8 nM in series [2]; 12.6 nM in series [3] (setting [5]); 6310 nM in series [4].
For `Cc1cc(/C=C/C#N)cc(C)c1Nc1nc(Nc2ccc(C#N)cc2)ncc1C(O)c1cn2ccnc2s1` (centres unmarked) [Compound 16], in that order: 95.5 nM, 89.1 nM, 63.1 nM, 25.1 nM and 7240 nM.
Usually melting point stands for the temperature of the solid-liquid transition. `Cc1cc(/C=C/C#N)cc(C)c1Nc1nc(Nc2ccc(C#N)cc2)ncc1C(O)c1ccccn1` (centres unmarked) [Compound 2] gave a melting point of 244 °C. For the same molecule, the EC50 in series [1] was 3.24 nM. Moreover, the EC50 in the series on HIV mutant strain Y181C was 8.51 nM. The EC50 in series [2] was 3.47 nM. The EC50 in series [3] (Human immunodeficiency virus 1, 72 h, wild type HIV strain IIIB, MT4 LTR-EGFP cells, measured three days after infection) was 3.47 nM. Moreover, the EC50 in series [4] was 813 nM.
Regarding `Cc1cc(/C=C/C#N)cc(C)c1Nc1nc(Nc2ccc(C#N)cc2)ncc1C(O)c1nccn1C` (centres unmarked) [Compound 11], the EC50 is 7.24 nM in series [1]; 6.03 nM in the series on HIV mutant strain Y181C; 3.72 nM in series [2]; 2.57 nM in series [3] (setting [5]); 832 nM in series [4].
`Cc1cc(/C=C/C#N)cc(C)c1Nc1nc(Nc2ccc(C#N)cc2)ncc1C(O)c1scnc1Br` (centres unmarked) [Compound 15]: the EC50 is 18.2 nM in series [1]; 17.8 nM in the series with HIV mutant strain Y181C; 7.76 nM in series [2]; 6.76 nM in series [3] (setting [5]); 468 nM in series [4].
For `Cc1cc(/C=C/C#N)cc(C)c1Nc1nc(Nc2ccc(C#N)cc2)ncc1C(O)(c1nccs1)c1nccs1` [Compound 21], in that order: 85.1 nM, 56.2 nM, 23.4 nM, 18.2 nM and 3310 nM.
Regarding `C=CC(O)(c1nccs1)c1cnc(Nc2ccc(C#N)cc2)nc1Nc1c(C)cc(/C=C/C#N)cc1C` (centres unmarked) [Compound 27], the “K103N + Y181C (pEC50)” value in series [1] came out at 7.54. Also, in the series on HIV mutant strain Y181C, the “Y181C (pEC50)” value is given as 7.70. In addition, the “L100I + K103N (pEC50)” value in series [2] is 7.84. The “IIIB (pEC50)” value in series [3] is on record as 7.70. Further, the “MDR (pEC50)” value in series [4] amounted to 6.27.
On to `C=CC(O)c1cnc(Nc2ccc(C#N)cc2)nc1Nc1c(C)cc(/C=C/C#N)cc1C` (centres unmarked) [Compound 12], for which the “K103N + Y181C (pEC50)” value in series [1] was determined as 8.38. In addition, the “Y181C (pEC50)” value in the series on HIV mutant strain Y181C is listed as 8.44. In series [2], the “L100I + K103N (pEC50)” value came to 8.86. Moreover, the “IIIB (pEC50)” value in series [3] (setting [6]) turned out to be 8.91. The “MDR (pEC50)” value in series [4] is listed as 6.37.
In the same order, the values of `Cc1cc(/C=C/C#N)cc(C)c1Nc1nc(Nc2ccc(C#N)cc2)ncc1C(C)(O)c1nccs1` (centres unmarked) [Compound 25] are 7.62, 7.74, 7.85, 7.75 and 6.40.
For the molecule `Cc1csc(CC(O)c2cnc(Nc3ccc(C#N)cc3)nc2Nc2c(C)cc(/C=C/C#N)cc2C)n1` (centres unmarked) [Compound 6], the EC50 in series [1] was 95.5 nM; in the series with HIV mutant strain Y181C it was 24.5 nM; in series [2], 18.6 nM; in series [3] (setting [5]) it was 3.72 nM; in series [4], 2240 nM.
For `COc1ccccc1C(O)c1cnc(Nc2ccc(C#N)cc2)nc1Nc1c(C)cc(/C=C/C#N)cc1C` (centres unmarked) [Compound 5], the EC50 is 18.6 nM in series [1]; 8.51 nM with HIV mutant strain Y181C; 8.51 nM in series [2]; 4.07 nM in series [3] (setting [5]); 646 nM in series [4].
On to `Cc1csc(C(O)c2cnc(Nc3ccc(C#N)cc3)nc2Nc2c(C)cc(/C=C/C#N)cc2C)n1` (centres unmarked) [Compound 8], for which the EC50 in series [1] was 9.55 nM; in the series on HIV mutant strain Y181C it was 14.5 nM; in series [2], 4.27 nM; in series [3] (setting [5]) it was 3.89 nM; in series [4] it was 209 nM.
On to `Cc1cc(/C=C/C#N)cc(C)c1Nc1nc(Nc2ccc(C#N)cc2)ncc1C(O)c1csc2nc(Cl)cn12` (centres unmarked) [Compound 18], for which the EC50 in series [1] is 107 nM; with HIV mutant strain Y181C, 79.4 nM; in series [2], 30.9 nM; in series [3] (setting [5]), 18.2 nM; in series [4], 2190 nM.
For `Cc1cc(/C=C/C#N)cc(C)c1Nc1nc(Nc2ccc(C#N)cc2)ncc1C(O)c1cccnc1` (centres unmarked) [Compound 4], in that order: 5.75 nM, 5.37 nM, 3.47 nM, 1.78 nM and 355 nM.
For `Cc1cc(/C=C/C#N)cc(C)c1Nc1nc(Nc2ccc(C#N)cc2)ncc1C(O)C#Cc1cncn1C` (centres unmarked) [Compound 13], in that order: 38.9 nM, 19.5 nM, 63.1 nM, 3.63 nM and 537 nM.
